ChEMBL document CHEMBL1201862, “PubChem BioAssay data set” (2004)
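Cells were grown in 96-well plates and exposed to each compound for 48 hours at five concentrations; endpoints were interpolated linearly between bracketing concentrations, or set to the highest concentration if not reached. GI50 = concentration required for 50% inhibition of growth.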 Calls of active or inactive are those of the source. Rule as the data show it: active = GI50 up to about 1.1 µM and inactive = higher.

Experiments:
Experiment in all cases: inhibition of tumour cell growth, NCI panel, 48 h
[1] = tested on: HL-60
[2] = tested on: 786-0
[3] = tested on: CCRF-CEM
[4] = tested on: SF-268
[5] = tested on: MDA-MB-435
[6] = tested on: A498
[7] = tested on: U-251
[8] = tested on: HCT-15
[9] = tested on: EKVX
[10] = tested on: OVCAR-4
[11] = tested on: Hs-578T
[12] = tested on: NCI-H23
[13] = tested on: SN12C
[14] = tested on: MDA-N
[15] = tested on: SF-295
[16] = tested on: T47D
[17] = tested on: UO-31
[18] = tested on: RXF 393
[19] = tested on: OVCAR-5
[20] = tested on: OVCAR-3

Row | SMILES | GI50 [1] | GI50 [2] | GI50 [3] | GI50 [4] | GI50 [5] | GI50 [6] | GI50 [7] | GI50 [8] [µM] | GI50 [9] | GI50 [10] | GI50 [11] | GI50 [12] | GI50 [13] | GI50 [14] | GI50 [15] | GI50 [16] | GI50 [17] | GI50 [18] | GI50 [19] | GI50 [20]
1 | Oc1ccc(C(c2ccc(O)cc2)c2ccc(O)cc2)cc1 | 18.9 µM (inactive) | 17.6 µM (inactive) | 33.6 µM (inactive) | 32.1 µM (inactive) | 19.7 µM (inactive) | 15.8 µM (inactive) | 23.2 µM (inactive) | 23.9 | 15.3 µM (inactive) | 9.71 µM (inactive) | 21.7 µM (inactive) | 19.2 µM (inactive) | 20.3 µM (inactive) | 25.9 µM (inactive) | 41.4 µM (inactive) | 9.27 µM (inactive) | 18.4 µM (inactive) | 17.2 µM (inactive) | – | –
2 | OCC1OC(O)C(/N=C\c2ccc3c(c2)OCO3)C(O)C1O (stereo unspecified) | > 100 µM (inactive) | > 100 µM (inactive) | – | > 100 µM (inactive) | > 100 µM (inactive) | > 100 µM (inactive) | > 100 µM (inactive) | > 100 | > 65.3 µM (inactive) | > 100 µM (inactive) | > 100 µM (inactive) | > 100 µM (inactive) | – | > 100 µM (inactive) | > 100 µM (inactive) | > 100 µM (inactive) | > 100 µM (inactive) | > 100 µM (inactive) | > 100 µM (inactive) | > 100 µM (inactive)
3 | COC1CC2C=CC3C4OC2(/C(C)=C/C(C)C(C(C)O)OC1=O)C3C(O)C(C)C4OC(=O)c1ccc[nH]1 (stereo unspecified) | 16.6 µM (inactive) | 94.8 µM (inactive) | 25.9 µM (inactive) | > 100 µM (inactive) | 58.1 µM (inactive) | > 100 µM (inactive) | 96.2 µM (inactive) | 92.5 | 63.4 µM (inactive) | 74 µM (inactive) | 94 µM (inactive) | > 100 µM (inactive) | > 100 µM (inactive) | 45.5 µM (inactive) | 30.9 µM (inactive) | > 100 µM (inactive) | > 100 µM (inactive) | – | > 100 µM (inactive) | > 100 µM (inactive)
4 | O=C1CCCCC1=C(I)I | 4.49 µM (inactive) | 16.5 µM (inactive) | 19.1 µM (inactive) | 19.4 µM (inactive) | 19.1 µM (inactive) | 20.5 µM (inactive) | 16.3 µM (inactive) | – | 1.88 µM (inactive) | 12.1 µM (inactive) | 63 µM (inactive) | – | 23.7 µM (inactive) | 16.9 µM (inactive) | 24.8 µM (inactive) | 15 µM (inactive) | 16.7 µM (inactive) | 16.2 µM (inactive) | 17.5 µM (inactive) | 16.3 µM (inactive)
5 | N#Cc1c2c([nH]c(=O)c1C#N)CCCC2 | > 100 µM (inactive) | > 100 µM (inactive) | > 100 µM (inactive) | > 100 µM (inactive) | > 100 µM (inactive) | > 100 µM (inactive) | > 100 µM (inactive) | > 100 | > 100 µM (inactive) | – | > 100 µM (inactive) | > 100 µM (inactive) | > 100 µM (inactive) | > 100 µM (inactive) | > 100 µM (inactive) | > 100 µM (inactive) | > 100 µM (inactive) | > 100 µM (inactive) | > 100 µM (inactive) | > 100 µM (inactive)
6 | O=C(Cc1ccccc1F)NC1=C(Cl)C(=O)c2ccccc2C1=O | 0.31 µM (active) | 3.09 µM (inactive) | 0.428 µM (active) | – | 2.77 µM (inactive) | 4.69 µM (inactive) | 0.65 µM (active) | 0.54 | 3.02 µM (inactive) | 0.659 µM (active) | 0.656 µM (active) | 0.778 µM (active) | 3.18 µM (inactive) | 2.78 µM (inactive) | 2.85 µM (inactive) | 1.87 µM (inactive) | 0.723 µM (active) | 0.249 µM (active) | 4.08 µM (inactive) | 0.621 µM (active)
